The values below come from patent US20240208969A1, “SUBSTITUTED FUSED BICYCLIC COMPOUNDS AS PARP INHIBITORS AND THE USE THEREOF” (IMPACT THERAPEUTICS (SHANGHAI), INC., priority 2021, published 2024).

For one assay, the target named is PARP1 (Homo sapiens, UniProt P09874). The experiment in a line: PARP1 chemiluminescent assay. Type of assay: biochemical. To be noted: recombinant PARP1 enzyme activity, chemiluminescence. On the procedure: (§1) Mix the solution of recombinant poly ADP ribotransferase 1 and 2 (PARP1 and PARP2) (40 ng enzyme/well) and the compounds to be tested, respectively. And then added to a 96-well plate coated with […] mixture, incubated at room temperature for 1 h. Then add 50 μL 0.3 ng/mL Streptavidin-HRP to each well. The plates were incubated for 30 minutes at room temperature. Finally, the plates were treated with streptavidin-HRP followed by addition of the ELISA ECL substrate to produce chemiluminescence that can then be measured using a chemiluminescence reader. The inhibition rate of the compound to PARP1/2 enzyme activity was calculated according to the following formula. [formula] IC50 value is obtained by fitting the s-shaped dose response curve equation by using XL Fit software. The curve equation is Y=100/(1+10^(log C−log IC50)), C is the compound concentration. Table 1 summarizes the inhibitory effects of compounds on PARP1 and PARP2 enzyme activity (IC50), wherein +++++ indicates IC50≤1 nM; ++++ indicates 1<IC50≤10 nM; +++ indicates 10 nM<IC50≤100 nM: ++ indicates 100 nM<IC50≤1 μM; + indicates IC50>1 μM.
Chain of PARP1 (P09874 whole entry): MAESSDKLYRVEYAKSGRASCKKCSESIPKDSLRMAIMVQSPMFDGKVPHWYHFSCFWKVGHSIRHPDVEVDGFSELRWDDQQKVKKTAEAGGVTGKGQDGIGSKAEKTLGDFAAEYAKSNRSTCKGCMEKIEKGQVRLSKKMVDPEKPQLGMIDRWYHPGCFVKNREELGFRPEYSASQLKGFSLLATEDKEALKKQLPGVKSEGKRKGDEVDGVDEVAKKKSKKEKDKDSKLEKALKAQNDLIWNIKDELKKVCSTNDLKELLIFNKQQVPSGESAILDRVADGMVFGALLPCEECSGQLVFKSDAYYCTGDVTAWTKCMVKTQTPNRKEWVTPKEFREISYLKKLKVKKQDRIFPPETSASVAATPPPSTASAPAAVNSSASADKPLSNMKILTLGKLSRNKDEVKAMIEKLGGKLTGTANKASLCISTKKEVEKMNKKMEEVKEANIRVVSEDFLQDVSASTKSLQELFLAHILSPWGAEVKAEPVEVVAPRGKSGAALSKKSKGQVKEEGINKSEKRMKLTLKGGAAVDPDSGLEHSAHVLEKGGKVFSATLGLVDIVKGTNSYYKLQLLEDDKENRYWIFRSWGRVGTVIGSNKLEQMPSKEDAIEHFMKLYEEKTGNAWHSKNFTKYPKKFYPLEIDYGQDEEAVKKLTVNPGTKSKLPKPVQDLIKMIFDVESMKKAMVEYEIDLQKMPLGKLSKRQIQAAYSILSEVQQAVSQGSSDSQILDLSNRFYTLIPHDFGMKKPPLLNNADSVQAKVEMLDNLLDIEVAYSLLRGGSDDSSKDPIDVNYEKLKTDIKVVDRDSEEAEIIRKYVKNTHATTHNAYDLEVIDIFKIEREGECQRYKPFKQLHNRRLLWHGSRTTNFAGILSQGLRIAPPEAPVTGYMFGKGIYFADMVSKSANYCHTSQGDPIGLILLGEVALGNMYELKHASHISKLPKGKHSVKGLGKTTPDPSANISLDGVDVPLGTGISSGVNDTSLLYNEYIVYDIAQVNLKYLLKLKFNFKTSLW

The target of another assay is PARP2 (Homo sapiens, UniProt Q9UGN5). The experiment in a line: PARP2 chemiluminescent assay. Type of assay: biochemical. To be noted: recombinant PARP2 enzyme activity, chemiluminescence. The protocol:
as §1

The test system of another assay is MDA-MB-436 cells. The experiment in a line: Inhibition of proliferation of human breast cancer MDA-MB-436 cell line (CCK-8, 7 days). The note with it: Homo sapiens, 168 h, proliferation of MDA-MB-436, 7 days. Type of assay: cell-based. The essentials:
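Cells seeded at 3000/well were treated next day with 8 serial doses (DMSO control) for 7 days at 37° C., 5% CO2, with compound medium changed on day four. CCK-8 was added for 4 hours and OD read as 450 nm minus 650 nm. IC50 came from a sigmoidal fit of survival relative to DMSO.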

In general, IC50 refers to the point on the concentration scale where inhibition reaches its midpoint.

Chain of PARP2 (Q9UGN5 whole entry, species assumed): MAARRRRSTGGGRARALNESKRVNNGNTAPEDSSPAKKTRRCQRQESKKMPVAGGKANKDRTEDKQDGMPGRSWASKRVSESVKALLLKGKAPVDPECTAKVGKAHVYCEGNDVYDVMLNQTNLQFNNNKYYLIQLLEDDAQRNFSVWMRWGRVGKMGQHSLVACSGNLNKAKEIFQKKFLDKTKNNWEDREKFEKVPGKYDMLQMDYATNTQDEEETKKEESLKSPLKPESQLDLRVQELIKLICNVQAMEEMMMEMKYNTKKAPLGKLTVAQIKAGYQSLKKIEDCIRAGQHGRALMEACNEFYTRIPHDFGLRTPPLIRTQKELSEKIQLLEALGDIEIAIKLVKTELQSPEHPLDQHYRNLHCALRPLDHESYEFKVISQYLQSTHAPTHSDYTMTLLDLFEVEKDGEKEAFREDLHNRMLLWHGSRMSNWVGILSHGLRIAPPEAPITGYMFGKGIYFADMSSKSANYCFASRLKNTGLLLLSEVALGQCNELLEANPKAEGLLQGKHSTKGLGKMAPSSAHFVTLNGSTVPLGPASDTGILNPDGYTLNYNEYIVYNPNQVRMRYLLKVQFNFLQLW

Regarding `CCn1c(=O)[nH]c2c(F)c(CN3CCN(c4ccc(C(=O)NC)nc4F)CC3)ccc2c1=O` [Example 24, 5-(4-((3-ethyl-8-fluoro-2,4-dioxo-1,2,3,4-tetrahydroquinazolin-7-yl)methyl)piperazin-1-yl)-6-fluoro-N-methylpicolinamide], the values for the IC50 on PARP1, on PARP2 and in the assay with MDA-MB-436 cells were 10 to 100 nM, greater than 1000 nM and 10 to 100 nM, respectively.
On to `CCn1c(=O)[nH]c2cc(CN3CCN(c4ccc(C(=O)NC)nc4F)CC3)cc(F)c2c1=O` [Example 25, 5-(4-((3-ethyl-5-fluoro-2,4-dioxo-1,2,3,4-tetrahydroquinazolin-7-yl)methyl)piperazin-1-yl)-6-fluoro-N-methylpicolinamide], for which the half-inhibitory concentration (IC50) at PARP1 was in the range of 1 to 10 nM; at PARP2, 100 to 1000 nM; in the assay with MDA-MB-436 cells it was 1 to 10 nM.
Consider `CNC(=O)c1ccc(N2CCN(Cc3ccc4c(=O)n(C(C)C)c(=O)[nH]c4c3)CC2)c(F)n1` [Example 26, 5-(4-((3-isopropyl-2,4-dioxo-1,2,3,4-tetrahydroquinazolin-7-yl)methyl)piperazin-1-yl)-6-fluoro-N-methylpicolinamide], for which the IC50 at PARP1 was 1 to 10 nM; at PARP2 it was greater than 1000 nM; in the assay on MDA-MB-436 cells it was 100 to 1000 nM.
Consider `CCn1c(=O)[nH]c2cc(CN3CCN(c4cnc(C(=O)NC)nc4)CC3)ccc2c1=O` [Example 27], for which the figures for the IC50 at PARP1, on PARP2 and with MDA-MB-436 cells were 1 to 10 nM, 100 to 1000 nM and greater than 1000 nM, respectively.
Taken in the same sequence, the figures for `CCn1c(=O)[nH]c2cc(CN3CCN(c4ccc(C(=O)NC)cn4)CC3)ccc2c1=O` [Example 28, 6-(4-((3-ethyl-2,4-dioxo-1,2,3,4-tetrahydroquinazolin-7-yl)methyl)piperazin-1-yl)-N-methylnicotinamide] were 1 to 10 nM, 100 to 1000 nM and greater than 1000 nM.
On the same counts, the results for `CCn1c(=O)[nH]c2cc(CN3CCN(c4ccc(C(=O)NC)nn4)CC3)ccc2c1=O` [Example 29, 6-(4-((3-ethyl-2,4-dioxo-1,2,3,4-tetrahydroquinazolin-7-yl)methyl)piperazin-1-yl)-N-methylpyridazine-3-carboxamide] are 1 to 10 nM, 100 to 1000 nM and greater than 1000 nM.
Taken in the same sequence, the figures for `CCn1c(=O)[nH]c2cc(CN3CCN(c4ncc(C(=O)NC)cn4)CC3)ccc2c1=O` [Example 30, 2-(4-((3-ethyl-2,4-dioxo-1,2,3,4-tetrahydroquinazolin-7-yl)methyl)piperazin-1-yl)-N-methylpyrimidine-5-carboxamide] were 10 to 100 nM, 10 to 100 nM and greater than 1000 nM.
Turning to `CCc1nc(C(=O)NC)ccc1N1CCN(Cc2ccc3c(=O)n(CC)c(=O)[nH]c3c2)CC1` [Example 31, 5-(4-((3-ethyl-2,4-dioxo-1,2,3,4-tetrahydroquinazolin-7-yl)methyl)piperazin-1-yl)-6-ethyl-N-methylpicolinamide], the IC50 on PARP1 is no more than 1 nM; at PARP2 it was greater than 1000 nM; with MDA-MB-436 cells it was 100 to 1000 nM.
On the same counts, the results for `CCn1c(=O)[nH]c2cc(CN3CCN(c4ccc(C(N)=O)nc4F)CC3)ccc2c1=O` [Example 32, 5-(4-((3-ethyl-2,4-dioxo-1,2,3,4-tetrahydroquinazolin-7-yl)methyl)piperazin-1-yl)-6-fluoropicolinamide] are 1 to 10 nM, 100 to 1000 nM and 10 to 100 nM.
Taken in the same sequence, the figures for `CCNC(=O)c1ccc(N2CCN(Cc3ccc4c(=O)n(CC)c(=O)[nH]c4c3)CC2)c(F)n1` [Example 33, 5-(4-((3-ethyl-2,4-dioxo-1,2,3,4-tetrahydroquinazolin-7-yl)methyl)piperazin-1-yl)-6-fluoro-N-ethylpicolinamide] were 1 to 10 nM, 100 to 1000 nM and 1 to 10 nM.
Taken in the same sequence, the figures for `CCn1c(=O)[nH]c2cc(CN3CCN(c4ccc(C(=O)NC(C)C)nc4F)CC3)ccc2c1=O` [Example 34, 5-(4-((3-ethyl-2,4-dioxo-1,2,3,4-tetrahydroquinazolin-7-yl)methyl)piperazin-1-yl)-6-fluoro-N-isopropylpicolinamide] were 1 to 10 nM, 100 to 1000 nM and 10 to 100 nM.
On to `CNC(=O)c1ccc(NC(=O)c2cccc(-c3ccc4c(=O)n(C)c(=O)[nH]c4c3)c2)cn1` [Example 40, 5-(3-(3-methyl-2,4-dioxo-1,2,3,4-tetrahydroquinazolin-7-yl)benzamido)N-methylpicolinamide], for which the IC50 was 1 to 10 nM at PARP1, greater than 1000 nM at PARP2 and greater than 1000 nM in the assay on MDA-MB-436 cells.
With `CCn1c(=O)[nH]c2cc(-c3cccc(C(=O)Nc4ccc(C(=O)NC)nc4)c3)ccc2c1=O` [Example 41, 5-(3-(3-ethyl-2,4-dioxo-1,2,3,4-tetrahydroquinazolin-7-yl)benzamido)-N-methylpicolinamide], the IC50 at PARP1 was 1 to 10 nM; at PARP2 it was greater than 1000 nM; in the assay on MDA-MB-436 cells, greater than 1000 nM.
Take `CNC(=O)c1ccc(NC(=O)c2cccc(-c3ccc4c(=O)n(C(C)C)c(=O)[nH]c4c3)c2)cn1` [Example 42, 5-(3-(3-isopropyl-2,4 dioxo-1,2,3,4-tetrahydroquinazolin-7-yl)benzamido)-N-methylpicolinamide]: the IC50 was 1 to 10 nM on PARP1, greater than 1000 nM on PARP2 and greater than 1000 nM with MDA-MB-436 cells.
For `CCCn1c(=O)[nH]c2cc(-c3cccc(C(=O)Nc4ccc(C(=O)NC)nc4)c3)ccc2c1=O` [Example 47, 5-(3-(3-propyl-2,4-dioxo-1,2,3,4-tetrahydroquinazolin-7-yl)benzamido)-N-methylpicolinamide], the results for the IC50 at PARP1, on PARP2 and in the assay on MDA-MB-436 cells were 10 to 100 nM, greater than 1000 nM and greater than 1000 nM, respectively.
With `CCn1c(=O)[nH]c2cc(CN3CCN(c4ccc(C(=O)NC)nc4Cl)CC3)c(F)cc2c1=O` [Example 61, 6-chloro-5-(4-((3-ethyl-6-fluoro-2,4-dioxo-1,2,3,4-tetrahydroquinazolin-7-yl)methyl)piperazin-1-yl)-N-methylpicolinamide], the half-maximal inhibitory concentration (IC50) was 1 to 10 nM at PARP1, greater than 1000 nM at PARP2 and 10 to 100 nM in the assay with MDA-MB-436 cells.
For `CCn1c(=O)[nH]c2cc(CN3CCN(c4ccc(C(=O)NC)nc4Cl)CC3)cc(F)c2c1=O` [Example 62, 6-chloro-5-(4-((3-ethyl-5-fluoro-2,4-dioxo-1,2,3,4-tetrahydroquinazolin-7-yl)methyl)piperazin-1-yl)-N-methylpicolinamide], the IC50 on PARP1 is 1 to 10 nM; at PARP2 it was 100 to 1000 nM; in the assay on MDA-MB-436 cells it was 10 to 100 nM.
On the same counts, the results for `CCn1c(=O)[nH]c2cc(CN3CCN(c4ccc(C(=O)NC)nc4Cl)CC3)cc(Cl)c2c1=O` [Example 63, 6-chloro-5-(4-((5-chloro-3-ethyl-2,4-dioxo-1,2,3,4-tetrahydroquinazolin-7-yl)methyl)piperazin-1-yl)-N-methylpicolinamide] are 1 to 10 nM, 100 to 1000 nM and 1 to 10 nM.
Taken in the same sequence, the figures for `CCn1c(=O)[nH]c2cc(CN3CCN(c4ccc(C(=O)NC)nc4C)CC3)c(F)cc2c1=O` [Example 67, 5-(4-((3-ethyl-6-fluoro-2,4-dioxo-1,2,3,4-tetrahydroquinazolin-7-yl)methyl)piperazin-1-yl)-N,6-dimethylpicolinamide] were 10 to 100 nM, greater than 1000 nM and 100 to 1000 nM.
On the same counts, the results for `CCn1c(=O)[nH]c2cc(CN3CCN(c4ccc(C(=O)NC5CC5)nc4C)CC3)ccc2c1=O` [Example 78, N-cyclopropyl-5-(4-((3-ethyl-2,4-dioxo-1,2,3,4-tetrahydroquinazolin-7-yl)methyl)piperazin-1-yl)-6-methylpicolinamide] are 1 to 10 nM, greater than 1000 nM and 10 to 100 nM.
With `CCNC(=O)c1ccc(N2CCN(Cc3ccc4c(=O)n(CC)c(=O)[nH]c4c3)CC2)c(Cl)n1` [Example 83, 6-chloro-N-ethyl-5-(4-((3-ethyl-2,4-dioxo-1,2,3,4-tetrahydroquinazolin-7-yl)methyl)piperazin-1-yl)picolinamide], the IC50 lay within 1 to 10 nM at PARP1, 100 to 1000 nM at PARP2 and 10 to 100 nM in the assay with MDA-MB-436 cells.
On the same counts, the results for `CCNC(=O)c1ccc(N2CCN(Cc3ccc4c(=O)n(CC)c(=O)[nH]c4c3)CC2)c(C)n1` [Example 84, N-ethyl-5-(4-((3-ethyl-2,4-dioxo-1,2,3,4-tetrahydroquinazolin-7-yl)methyl)piperazin-1-yl)-6-methylpicolinamide] are 1 to 10 nM, greater than 1000 nM and 10 to 100 nM.
`CCNC(=O)c1ccc(N2CCN(Cc3cc(F)c4c(=O)n(CC)c(=O)[nH]c4c3)CC2)c(Cl)n1` [Example 104, 6-chloro-N-ethyl-5-(4-((3-ethyl-5-fluoro-2,4-dioxo-1,2,3,4-tetrahydroquinazolin-7-yl)methyl)piperazin-1-yl)picolinamide]: the IC50 on PARP1 was 1 to 10 nM; on PARP2, greater than 1000 nM; in the assay with MDA-MB-436 cells, 1 to 10 nM.
